Source: US20090197880A1 (Genelabs Technologies, Inc., priority 2007, published 2009)

Assay: HCV replicon assay (luciferase) in ET (Huh-lucubineo-ET) cell line
Format: cell-based
Conditions: Hepatitis C virus; tested at 10 μM; inhibition of replication relative to no compound control; ET replicon cells, luciferase 48-72 hours; read-out: % inhition at 10 μM

First: CC(C)(C)c1ccc(-c2cc(Cn3cc4nc(-c5ccccc5F)nc-4cn3)on2)cc1 [Compound 283, 5-[3-(4-tert-Butyl-phenyl)-isoxazol-5-ylmethyl]-2-(2-fluoro-phenyl)-5H-imidazo[4,5-d]pyridazine]
Second: Fc1ccccc1-c1nc2cnn(Cc3cc(-c4ccc(Br)cc4)no3)cc-2n1 [Compound 285, 5-[3-(4-Bromo-phenyl)-isoxazol-5-ylmethyl]-2-(2-fluoro-phenyl)-5H-imidazo[4,5-d]pyridazine]
The inhibition at 10 µM of the first is lower: 66.7% for the first, 90.1% for the second.

Going from `N#Cc1ccc(-c2cc(Cn3cc4nc(-c5ccccc5F)nc-4cn3)on2)cc1` [Compound 284, 4-{5-[2-(2-Fluoro-phenyl)-imidazo[4,5-d]pyridazin-5-ylmethyl]-isoxazol-3-yl}-benzonitrile] to `Fc1ccccc1-c1nc2cnn(Cc3cc(-c4ccc(Br)cn4)no3)cc-2n1` [Compound 289, 5-[3-(5-Bromo-pyridin-2-yl)-isoxazol-5-ylmethyl]-2-(2-fluoro-phenyl)-5H-imidazo[4,5-d]pyridazine], the inhibition at 10 µM falls from 77.4% to 57.3%.

Going from `CC(=O)c1ccc(-c2cc(Cn3cc4nc(-c5cccc(F)c5F)nc-4cn3)on2)cc1` [Compound 290, 1-(4-{5-[2-(2,3-Difluoro-phenyl)-imidazo[4,5-d]pyridazin-5-ylmethyl]-isoxazol-3-yl}-phenyl)-ethanone] to `Fc1cccc(-c2nc3cnn(Cc4cc(-c5ccc(OCC(F)(F)F)cc5)no4)cc-3n2)c1F` [Compound 295, 2-(2,3-Difluoro-phenyl)-5-{3-[4-(2,2,2-trifluoro-ethoxy)-phenyl]-isoxazol-5-ylmethyl}-5H-imidazo[4,5-d]pyridazine], the inhibition at 10 µM rises from 95.2% to 100%.

First: Fc1ccccc1-c1nc2cnn(Cc3nnc(-c4ccc(Cl)cc4)o3)cc-2n1 [Compound 291, 5-[5-(4-Chloro-phenyl)-[1,3,4]oxadiazol-2-ylmethyl]-2-(2-fluoro-phenyl)-5H-imidazo[4,5-d]pyridazine]
Second: CCCOc1ccc(-c2cc(Cn3cc4nc(-c5cccc(F)c5F)nc-4cn3)on2)c(F)c1 [Compound 296, 2-(2,3-Difluoro-phenyl)-5-[3-(2-fluoro-4-propoxy-phenyl)-isoxazol-5-ylmethyl]-5H-imidazo[4,5-d]pyridazine]
The inhibition at 10 µM of the first is lower: 22.5% for the first, 99.5% for the second.

Compared with `Fc1cccc(-c2nc3cnn(Cc4onc(-c5ccc(C(F)(F)F)cc5C(F)(F)F)c4Br)cc-3n2)c1F` [Compound 292, 5-[3-(2,4-Bis-trifluoromethyl-phenyl)-4-bromo-isoxazol-5-ylmethyl]-2-(2,3-difluoro-phenyl)-5H-imidazo[4,5-d]pyridazine], `Fc1cccc(-c2nc3cnn(Cc4cc(-c5ccc(Br)cc5C(F)(F)F)no4)cc-3n2)c1F` [Compound 293, 5-[3-(4-Bromo-2-trifluoromethyl-phenyl)-isoxazol-5-ylmethyl]-2-(2,3-difluoro-phenyl)-5H-imidazo[4,5-d]pyridazine] is higher in inhibition at 10 µM: 64.1% for the first, 99.7% for the second.

First: COc1ccc(-c2cc(Cn3cc4nc(-c5cccc(F)c5F)nc-4cn3)on2)c(OC)c1 [Compound 294, 2-(2,3-Difluoro-phenyl)-5-[3-(2,4-dimethoxy-phenyl)-isoxazol-5-ylmethyl]-5H-imidazo[4,5-d]pyridazine]
Second: COc1cc(OC(F)(F)F)ccc1-c1cc(Cn2cc3nc(-c4cccc(F)c4F)nc-3cn2)on1 [Compound 297, 2-(2,3-Difluoro-phenyl)-5-[3-(2-methoxy-4-trifluoromethoxy-phenyl)-isoxazol-5-ylmethyl]-5H-imidazo[4,5-d]pyridazine]
The inhibition at 10 µM of the first is lower: 50% for the first, 90.8% for the second.

In the case of `COc1ccc(-c2cc(Cn3cc4nc(-c5cccc(F)c5F)nc-4cn3)on2)c(OC(F)(F)F)c1` [Compound 298, 2-(2,3-Difluoro-phenyl)-5-[3-(4-methoxy-2-trifluoromethoxy-phenyl)-isoxazol-5-ylmethyl]-5H-imidazo[4,5-d]pyridazine], the inhibition at 10 µM was 99.9%.
